Reference: US11753403B2, “EIF4E inhibitors and uses thereof” (PIC Therapeutics, Inc., priority 2020, dated 2023)

target: Human eIF4E (aa 28-217) / biotin labeled 4G2 peptide (Homo sapiens (Human), UniProt P06730); assay: Human eIF4E/4G2 binding assay (TR-FRET); conditions: Human eIF4E/4G2 TR-FRET binding assay; head says IC50, legend says EC50
Protocol: Example 5. Compound Testing in Human eIF4E/4G2 Binding Assay
Human eIF4E (aa 28-217) with a C-terminal His-tag was expressed in E. coli in inclusion bodies. The protein was solubilized with 8 M urea and purified under denaturing conditions using nickel-charged HisTrap HP columns (GE Healthcare). The purified protein was then refolded by diluting in 20 mM Hepes pH 7.0, 0.5 M NaCl, 1 mM DTT, 1 mM EDTA, 0.5 M arginine plus 6 M urea, and then dialyzing overnight into the same buffer without the urea. The protein was further dialyzed into 20 mM Hepes, pH 6.5, 50 mM NaCl, 1 mM EDTA, 1 mM DTT, and concentrated using Hitrap SP sepharose FF columns (GE Healthcare). The concentrated protein was dialyzed into 20 mM Hepes, pH 7.0, 0.5M NaCl, 5 mM DTT and 10% glycerol, and stored at −80° C. until use.
Test compounds (3.43 mM stock in DMSO) were diluted 2-fold in series in DMSO (10 concentration points). Compound solutions (1.2 μl/well) were added into black 384-well polypropylene microplates (Matrix, Thermal Scientific). Twenty-two microliters per well of Assay Buffer (50 mM NaPi, pH 6.5, 50 mM KCl, 1 mM DTT and 0.5 mg/ml gamma globulin) and eight microliters per well of 82.5 nM purified eIF4E in Assay Buffer were added. The samples were incubated at room temperature (20-23° C.) for 4 hours. Biotin labeled 4G2 peptide (Ac-Lys-Gln-Tyr-Asp-Arg-Glu-Phe-Leu-Leu-Asp-Phe-Gln-Phe-Met-Pro-Lys(Aha-Bio)-NH2, 1.75 μM stock in DMSO) was diluted to 0.14 μM in Assay Buffer (without DTT) and 5 μl/well was added. The samples were incubated at room temperature for 20 min. Five microliters per well of 6.4 nM Eu-streptavidin (Eu-SA, Perkin Elmer) and 80 nM Allophycocyanin (APC)-anti His antibody (Columbia Biosciences) in Assay Buffer (without DTT) were then added and the samples were incubated at room temperature for 20 min.
Assay signals were monitored by reading excitation at 340 nm and emission fluorescence at 615 nm and 665 nm on an Envision reader (Perkin Elmer). Normalized TR-FRET (time-resolved fluorescence resonance energy transfer) assay signal (Rn) was calculated by the formula: Rn=[(A−Ba−C×D)/(D−Bd)]×(Dc−Bd) Where A is the fluorescence intensity of the sample at 665 nm, • D is the fluorescence intensity of the sample at 615 nm, • Ba and Bd are plate backgrounds at 665 nm and 615 nm, respectively, • Dc is the fluorescence intensity of 0.78 nM Eu-SA in the assay buffer at 615 nm The cross-talk factor (C) is determined by the following formula: C=(Ac−Ba)/(Dc−Bd) Where Ac is the fluorescence intensity of 0.78 nM Eu-SA in the assay buffer at 665 nm.
IC50 values were calculated using xLFit program (IDBS). Table 2 below lists EC50 of some compounds, wherein A represents EC50≤1 uM; B represents 1 uM<EC50≤10 uM; and C represents EC50>10 uM.

Sequence of Human eIF4E (aa 28-217) / biotin labeled 4G2 peptide (P06730 28-217): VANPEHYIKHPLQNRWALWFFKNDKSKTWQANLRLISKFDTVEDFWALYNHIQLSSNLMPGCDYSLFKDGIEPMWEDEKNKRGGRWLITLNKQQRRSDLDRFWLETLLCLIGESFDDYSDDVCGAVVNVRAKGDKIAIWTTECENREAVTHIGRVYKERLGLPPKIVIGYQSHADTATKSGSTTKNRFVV

| Structure (SMILES) | IC50 [µM] |
| --- | --- |
| CC(C)Cc1sc(N(CCC(=O)O)Cc2cccs2)nc1-c1ccc(Cl)c(Cl)c1 [I-65] | ≤ 1 |
| CC(C)Cc1sc(N(CCO)CCC(=O)O)nc1-c1ccc(Cl)c(Cl)c1 [I-66] | 1 to 10 |
| COCCN(CCC(=O)O)c1nc(-c2ccc(Cl)c(Cl)c2)c(CC(C)C)s1 [I-67] | 1 to 10 |
| Cc1noc(CN(CCC(=O)O)c2nc(-c3ccc(Cl)c(Cl)c3)c(CC(C)C)s2)n1 [I-68] | 1 to 10 |
| CC(C)Cc1sc(N(CCC(=O)O)CC2CCCO2)nc1-c1ccc(Cl)c(Cl)c1 (stereo not shown) [I-69] | 1 to 10 |
| CC(C)Cc1sc(N(CCCO)CCC(=O)O)nc1-c1ccc(Cl)c(Cl)c1 [I-70] | 1 to 10 |
| CC(C)Cc1sc(N(CCCN(C)C)CCC(=O)O)nc1-c1ccc(Cl)c(Cl)c1 [I-71] | > 10 |
| CC(C)Cc1sc(N(CCC(=O)O)CCN(C)C)nc1-c1ccc(Cl)c(Cl)c1 [I-72] | > 10 |
| CC(C)Cc1sc(N(CCC(=O)O)Cc2ccc(O)cc2)nc1-c1ccc(Cl)c(Cl)c1 [I-73] | 1 to 10 |
| CC(C)c1sc(N(CCC(=O)O)Cc2ccccc2)nc1-c1ccc(Cl)c(Cl)c1 [I-74] | ≤ 1 |
| Cc1ccc(-c2nc(N(CCC(=O)O)Cc3ccccc3)sc2C(C)C)cc1C [I-75] | 1 to 10 |
| COc1ccc(-c2nc(N(CCC(=O)O)Cc3ccccc3)sc2C(C)C)cc1 [I-76] | > 10 |
| CC(C)c1sc(N(CCC(=O)O)Cc2ccccc2)nc1-c1ccc(F)c(F)c1 [I-77] | 1 to 10 |
| CC(C)c1sc(N(CCC(=O)O)Cc2ccccc2)nc1-c1ccc(F)c(Cl)c1 [I-78] | 1 to 10 |
| CC(C)Cc1sc(N(CCC(=O)O)Cc2ccccc2)nc1-c1cccc(Cl)c1 [I-79] | 1 to 10 |
| COc1ccc(-c2nc(N(CCC(=O)O)Cc3ccccc3)sc2CC(C)C)cc1Cl [I-80] | 1 to 10 |

| Structure (SMILES) | IC50 [µM] |
| --- | --- |
| CC(C)Cc1sc(N(CCC(=O)O)Cc2ccccc2)nc1-c1cc(F)c(F)c(F)c1 [I-81] | 1 to 10 |
| CC(C)Cc1sc(N(CCC(=O)O)Cc2ccccc2)nc1-c1cccc(F)c1 [I-82] | 1 to 10 |
| CC(C)Cc1sc(N(CCC(=O)O)Cc2ccccc2)nc1-c1cccnc1 [I-83] | > 10 |
| CC(C)Cc1sc(N(CCC(=O)O)Cc2ccccc2)nc1-c1ccncc1 [I-84] | > 10 |
| CC(C)Cc1sc(N(CCC(=O)O)Cc2ccccc2)nc1-c1ccc2[nH]ccc2c1 [I-85, 3-((4-(1H-indol-5-yl)-5-isobutylthiazol-2-yl)(benzyl)amino)propanoic acid] | 1 to 10 |
| CC(C)Cc1sc(N2CCN(C)C(C(=O)O)C2)nc1-c1ccc(Cl)c(Cl)c1 (stereo not shown) [I-86] | > 10 |
| CC(C)Cc1sc(N(CCC(=O)O)CC2CCCCC2)nc1-c1ccc(Cl)c(Cl)c1 [I-87] | ≤ 1 |
| CC(C)Cc1sc(N(CCC(=O)O)CC2CCN(C)CC2)nc1-c1ccc(Cl)c(Cl)c1 [I-88] | > 10 |
| CN(C)Cc1sc(N(CCC(=O)O)Cc2ccccc2)nc1-c1ccc(Cl)c(Cl)c1 [I-89, 3-(benzyl(4-(3,4-dichlorophenyl)-5-((dimethylamino)methyl)thiazol-2-yl)amino)propanoic acid] | > 10 |
| CC(C)Cc1sc(N(CCC(=O)O)Cc2ccccc2)nc1-c1ccc(Cl)cc1 [I-93] | 1 to 10 |
| CC(C)Cc1sc(N(CCC(=O)O)CCc2cccc(Cl)c2)nc1-c1ccc(Cl)c(Cl)c1 [I-94] | ≤ 1 |
| CC(C)Cc1sc(N(CCCc2ccccc2)CCC(=O)O)nc1-c1ccc(Cl)c(Cl)c1 [I-96] | ≤ 1 |
| CC(C)Cc1sc(N(CCC(=O)NS(C)(=O)=O)Cc2ccccc2)nc1-c1ccc(Cl)c(Cl)c1 [I-97, 3-(benzyl(4-(3,4-dichlorophenyl)-5-isobutylthiazol-2-yl)amino)-N-(methylsulfonyl)propanamide] | 1 to 10 |
| CC(=O)NS(=O)(=O)CCN(Cc1ccccc1)c1nc(-c2ccc(Cl)c(Cl)c2)c(CC(C)C)s1 [I-99, N-(2-(benzyl(4-(3,4-dichlorophenyl)-5-isobutylthiazol-2-yl)amino)ethylsulfonyl)acetamide] | 1 to 10 |
| CC(C)Cc1sc(N(CCc2nnn[nH]2)Cc2ccccc2)nc1-c1ccc(Cl)c(Cl)c1 [I-100] | ≤ 1 |
